How the values were obtained:
[1] = In vitro stability in mouse plasma (LC-MS); assay type: in vitro ADME; details: for % Parent remaining (Mouse): rivaroxaban itself incubated
Description: The final concentration of the test compound in the assay is 5 micromolar. […] C. The 100 microlitres of aliquot at time point was removed and diluted with ice cold acetonitrile containing IS (200 µL) to stop the reactions. Samples are centrifuged at 10,000 RPM for 5 minutes to precipitate proteins. Supernatants are transferred to micro centrifuge tubes and stored at −20° C. for analysis of LC/MS/MS. The percent parent remaining of the test substance is calculated as ratio of peak area at each time point to peak area ratio at zero min, multiplied by 100.
API 4000, ESI Agilent 1100 column: Gemini Nx 100 mm×4.6 mm 5.μ; column temperature: 30° C.; eluent A: 0.1% formic acid in water, eluent B: acetonitrile; gradient: 0-2.5 min 95% A, 5% B; 2.5-2.6 min 5% A, 95% B; 2.6-4.2 min 95% A, 5% B; flow rate: 0.8 ml/min; ESI. Q1:464.098, Q3:144.255

[2] = In vitro liver microsomal stability assay, human; assay type: in vitro ADME; details: human microsomes; for % Parent remaning (Human): rivaroxaban itself incubated
Description: (§1) Liver microsomal stability assays are conducted at 1 mg per mL liver microsome protein with an NADPH in phosphate buffer (100 mM, pH 7.4). Test compounds (compound of formula B of the invention) are prepared as solutions in 20% methanol-water and added to the assay mixture (final assay concentration 1 μM) and incubated at 37° C. Aliquots (100 .μ.L) are taken out at times 0, 15, and 30 minutes, and diluted with ice cold acetonitrile containing IS (200 µL) to stop the reactions. Samples are centrifuged at 10,000 RPM for 5 minutes to precipitate proteins. Supernatants are transferred to micro centrifuge tubes and stored at −20° C. for analysis of LC/MS/MS. The percent parent remaining of the test substance is calculated as Ratio of peak area at each time point to peak area ratio at zero min, multiplied by 100. The compound formula (B) is converted to Rivaroxaban in microsomal assay.

[3] = In vitro liver microsomal stability assay, rat; assay type: in vitro ADME; details: rat microsomes; for % Parent remaining (rat): rivaroxaban itself incubated
Description: as §1

[4] = In vitro liver microsomal stability assay, mouse; assay type: in vitro ADME; details: mouse microsomes
Description: as §1

thrombus formation [5] = test: Arteriovenous shunt model (rat); assay type: in vivo, rats (strain: Wistar); details: for ED50: Rattus norvegicus, arteriovenous shunt, read-out: ED-50 to inhibit the thrombus formation
From the text: Fasting male rats (strain: Wistar) having a weight of 280-320 g were anaesthetized using a isoflurane/oxygen. Thrombus formation was initiated in an arteriovenous shunt in accordance with the method described by Christopher N. Berry et al., Br. J. Pharmacol. (1994), 113, 1209-1214. To this end, the left jugular vein and the right carotid artery were exposed. The two vessels were connected by an extracorporeal shunt using a 10 cm long Poly Vinyl Chloride tube (.P.V.C.) 9 internal diameter i.d. 0.5 mm), in middle of PVC tubing a 5 cm Scalp vein tube (i.d. 1.5 mm) will be attached which contained a 3 cm long roughened surface nylon thread which will be arranged to form a loop to form a thrombogenic surface. The extracorporeal circulation was maintained for 15 minutes. The shunt was then removed and the nylon thread with the thrombus was weighed immediately. The weight of the nylon thread on its own had been determined before the experiment was started. Before the extracorporeal circulation was set up, The test item [compound formula (B) (Wanxaban)/reference item (Rivaroxaban)/vehicle will be administered to the animals as per routes preferred. Animals were grouped by body weight stratification and randomization (Represented by G1-[…]). The grouping was done one day prior to the experiment initiation.

thrombus formation [6] = test: Arterial thrombosis model (rat); assay type: in vivo, rats (strain: Wistar); details: for ED50: Rattus norvegicus, arterial thrombosis, read-out: ED-50 to inhibit the thrombus formation
Description: Male fasting rats (strain: Wistar) having a weight 280-320 g were anaesthetized using isoflurane/oxygen. The left carotid artery was exposed (about 2 cm). The formation of an arterial thrombus was induced by mechanical injury to the blood vessel in accordance with the method described by K. Meng et al., Naunyn-Schmiedeberg's Arch. Pharmacol. (1977), 301, 115-119. To this end, the exposed carotid artery was clamped from the blood flow, cooled to -20° C. in a metal trough for 2 minutes and, to standardize the size of the thrombi, simultaneously compressed using a weight of 200 g. […] The proximal clamp was removed, and the wound was closed and re-opened after 2 hours to remove the injured section of the vessel. The section of the vessel was opened longitudinally and the thrombus was removed from the injured section of the vessel. The moist weight of the thrombi was determined immediately. […] Animals were grouped by body weight stratification and randomization (Represented by G1-[…]). The grouping was done one day prior to the experiment initiation.

thrombus formation [7] = test: Venous thrombosis model (rat); assay type: in vivo, rats (strain: Wistar); details: for ED50: Rattus norvegicus, venous thrombosis, per oral, read-out: ED-50 to inhibit the thrombus formation; for Mean thrombus weight (mg) (±SEM): per oral 120 minutes before induction, vehicle 4.36 ± 0.58
Description: Male fasting rats (strain: Wistar) having a weight 280-320 g were anaesthetized using isoflurane/oxygen. The left jugular vein was exposed (about 2 cm). The formation of a venous thrombus was induced by mechanical injury to the blood vessel in accordance with the method described by K. Meng, et al., Naunyn-Schmiedeberg's Arch. Pharmacol. (1977), 301, 115-119. To this end, the jugular vein was clamped from the blood flow, cooled to -12° C. in a metal trough for 2 minutes and, to standardize the size of the thrombi, simultaneously compressed using a weight of 200 g. The blood flow was re-opened and the wound was closed. After 4 hours, the wound was re-opened to remove the thrombi from the injured sections of the vessel. The moist weight of the thrombi was determined immediately. […] Animals were grouped by body weight stratification and randomization (Represented by G12-[…]). The grouping was done one day prior to the experiment initiation.

[8] = intravenous, Dose 0.5, vehicle 27.26 ± 1.23
[9] = intravenous, Dose 1, vehicle 27.26 ± 1.23
[10] = intravenous, Dose 2, vehicle 27.26 ± 1.23
[11] = intravenous, Dose 3, vehicle 27.26 ± 1.23
[12] = intravenous, Dose 4, vehicle 27.26 ± 1.23
[13] = per oral, Dose 2.5, vehicle 26.95 ± 1.23
[14] = per oral, Dose 5, vehicle 26.95 ± 1.23
[15] = per oral, Dose 10, vehicle 26.95 ± 1.23
[16] = per oral, Dose 15, vehicle 26.95 ± 1.23
[17] = per oral, Dose 20, vehicle 26.95 ± 1.23
[18] = intravenous 5 minutes before induction, Dose 0.5, vehicle 2.08 ± 0.47
[19] = intravenous 5 minutes before induction, Dose 1, vehicle 2.08 ± 0.47
[20] = intravenous 5 minutes before induction, Dose 2, vehicle 2.08 ± 0.47
[21] = intravenous 5 minutes before induction, Dose 3, vehicle 2.08 ± 0.47
[22] = intravenous 5 minutes before induction, Dose 4, vehicle 2.08 ± 0.47
[23] = per oral 120 minutes before induction, Dose 2.5, vehicle 1.70 ± 0.39
[24] = per oral 120 minutes before induction, Dose 5.0, vehicle 1.70 ± 0.39
[25] = per oral 120 minutes before induction, Dose 10, vehicle 1.70 ± 0.39
[26] = per oral 120 minutes before induction, Dose 15, vehicle 1.70 ± 0.39
[27] = per oral 120 minutes before induction, Dose 20, vehicle 1.70 ± 0.39

O=C(NC[C@H]1CN(c2ccc(N3CCOCC3=O)cc2)C(=O)O1)c1ccc(Cl)s1 [Rivaroxaban, 5-chloro-N-({(5S)-2-oxo-3-[4-(3-oxomorpholin-4-yl)phenyl]-1,3-oxazolidin-5-yl}methyl)thiophene-2-carboxamide, reference compound]
Conversion summary: unchanged, stable in plasma ([1]; rivaroxaban itself): unchanged,
% Parent remaining (Mouse) ([1]; 0 min): 100%
% Parent remaining (Mouse) ([1]; 30 min): 100%
% Parent remaining (Mouse) ([1]; 60 min): 100%
% Parent remaning (Human) ([2]; 0 min): 100%
% Parent remaning (Human) ([2]; 15 min): 0.01%
% Parent remaning (Human) ([2]; 30 min): 0.01%
Observation: metabolism ([3]; rivaroxaban itself): High
% Parent remaining (rat) ([3]; 0 min): 100%
% Parent remaining (rat) ([3]; 15 min): 0.01%
% Parent remaining (rat) ([3]; 30 min): 0.02%
Observation: metabolism ([4]; rivaroxaban itself): High
ED50 (thrombus formation [5]; intravenous): 1.7 mg/kg
ED50 (thrombus formation [5]; per oral): 26.2 mg/kg
Mean thrombus weight (mg) (±SEM) (thrombus formation [5]; [8]): 13.95 ± 1.49 mg
Mean thrombus weight (mg) (±SEM) (thrombus formation [5]; [9]): 10.84 ± 1.16 mg
Mean thrombus weight (mg) (±SEM) (thrombus formation [5]; [10]): 10.83 ± 1.11 mg
Mean thrombus weight (mg) (±SEM) (thrombus formation [5]; [11]): 6.92 ± 0.57 mg
Mean thrombus weight (mg) (±SEM) (thrombus formation [5]; [12]): 7.56 ± 0.59 mg
Mean thrombus weight (mg) (±SEM) (thrombus formation [5]; [13]): 19.2 ± 0.2 mg
Mean thrombus weight (mg) (±SEM) (thrombus formation [5]; [14]): 17.26 ± 0.75 mg
Mean thrombus weight (mg) (±SEM) (thrombus formation [5]; [15]): 15.41 ± 1.25 mg
Mean thrombus weight (mg) (±SEM) (thrombus formation [5]; [16]): 16.9 ± 0.49 mg
Mean thrombus weight (mg) (±SEM) (thrombus formation [5]; [17]): 9.7 ± 1.34 mg
ED50 (thrombus formation [6]; intravenous): 2.5 mg/kg
ED50 (thrombus formation [6]; per oral): 24.2 mg/kg
Mean thrombus weight (mg) (±SEM) (thrombus formation [6]; [18]): 1.10 ± 0.32 mg
Mean thrombus weight (mg) (±SEM) (thrombus formation [6]; [19]): 0.62 ± 0.08 mg
Mean thrombus weight (mg) (±SEM) (thrombus formation [6]; [20]): 0.70 ± 0.11 mg
Mean thrombus weight (mg) (±SEM) (thrombus formation [6]; [21]): 0.41 ± 0.05 mg
Mean thrombus weight (mg) (±SEM) (thrombus formation [6]; [22]): 0.34 ± 0.08 mg
Mean thrombus weight (mg) (±SEM) (thrombus formation [6]; [23]): 1.71 ± 0.45 mg
Mean thrombus weight (mg) (±SEM) (thrombus formation [6]; [24]): 1.78 ± 0.66 mg
Mean thrombus weight (mg) (±SEM) (thrombus formation [6]; [25]): 0.84 ± 0.23 mg
Mean thrombus weight (mg) (±SEM) (thrombus formation [6]; [26]): 0.78 ± 0.14 mg
Mean thrombus weight (mg) (±SEM) (thrombus formation [6]; [27]): 0.65 ± 0.10 mg
ED50 (thrombus formation [7]): 12.3 mg/kg
Mean thrombus weight (mg) (±SEM) (thrombus formation [7]; Dose 2.5): 2.93 ± 0.50 mg
Mean thrombus weight (mg) (±SEM) (thrombus formation [7]; Dose 5.0): 2.06 ± 0.73 mg
Mean thrombus weight (mg) (±SEM) (thrombus formation [7]; Dose 10): 2.06 ± 0.53 mg
Mean thrombus weight (mg) (±SEM) (thrombus formation [7]; Dose 15): 1.43 ± 0.46 mg
Mean thrombus weight (mg) (±SEM) (thrombus formation [7]; Dose 20): 1.66 ± 0.74 mg

O=CN(C[C@H]1CN(c2ccc(N3CCOCC3=O)cc2)C(=O)O1)C(=O)c1ccc(Cl)s1 [compound formula (B), 5-chloro-N-formyl-N-({(5S)-2-oxo-3-[4-(3-oxomorpholin-4-yl)phenyl]-1,3-oxazolidin-5-yl}methyl)thiophene-2-carboxamide]
Amount of test product detected (conversion to rivaroxaban from zero min) [1]: min. Neglible
Amount of test product detected (metabolised to rivaroxaban from zero min) [2]: Neglible
Amount of test product detected (metabolised to rivaroxaban from zero min) [3]: min. Neglible
Amount of test product detected (metabolised to rivaroxaban from zero min) [4]: min. Neglible
ED50 (thrombus formation [5]; intravenous): 1 mg/kg
ED50 (thrombus formation [5]; per oral): 22.8 mg/kg
Mean thrombus weight (mg) (±SEM) (thrombus formation [5]; [8]): 18.7 ± 1.22 mg
Mean thrombus weight (mg) (±SEM) (thrombus formation [5]; [9]): 13.99 ± 2 mg
Mean thrombus weight (mg) (±SEM) (thrombus formation [5]; [10]): 8.45 ± 0.75 mg
Mean thrombus weight (mg) (±SEM) (thrombus formation [5]; [11]): 5.83 ± 0.31 mg
Mean thrombus weight (mg) (±SEM) (thrombus formation [5]; [12]): 4.81 ± 0.31 mg
Mean thrombus weight (mg) (±SEM) (thrombus formation [5]; [13]): 3.81 ± 1.55 mg
Mean thrombus weight (mg) (±SEM) (thrombus formation [5]; [14]): 1.60 ± 0.10 mg
Mean thrombus weight (mg) (±SEM) (thrombus formation [5]; [15]): 0.66 ± 0.09 mg
Mean thrombus weight (mg) (±SEM) (thrombus formation [5]; [16]): 0.53 ± 0.18 mg
Mean thrombus weight (mg) (±SEM) (thrombus formation [5]; [17]): 0.62 ± 0.16 mg
ED50 (thrombus formation [6]; intravenous): 0.5 mg/kg
ED50 (thrombus formation [6]; per oral): 4 mg/kg
Mean thrombus weight (mg) (±SEM) (thrombus formation [6]; [18]): 1.32 ± 0.17 mg
Mean thrombus weight (mg) (±SEM) (thrombus formation [6]; [19]): 0.60 ± 0.09 mg
Mean thrombus weight (mg) (±SEM) (thrombus formation [6]; [20]): 0.61 ± 0.09 mg
Mean thrombus weight (mg) (±SEM) (thrombus formation [6]; [21]): 0.47 ± 0.05 mg
Mean thrombus weight (mg) (±SEM) (thrombus formation [6]; [22]): 0.36 ± 0.03 mg
Mean thrombus weight (mg) (±SEM) (thrombus formation [6]; [23]): 1.15 ± 0.13 mg
Mean thrombus weight (mg) (±SEM) (thrombus formation [6]; [24]): 0.71 ± 0.04 mg
Mean thrombus weight (mg) (±SEM) (thrombus formation [6]; [25]): 0.78 ± 0.14 mg
Mean thrombus weight (mg) (±SEM) (thrombus formation [6]; [26]): 0.58 ± 0.11 mg
Mean thrombus weight (mg) (±SEM) (thrombus formation [6]; [27]): 0.44 ± 0.04 mg
ED50 (thrombus formation [7]): 1.9 mg/kg
Mean thrombus weight (mg) (±SEM) (thrombus formation [7]; Dose 2.5): 3.81 ± 1.55 mg
Mean thrombus weight (mg) (±SEM) (thrombus formation [7]; Dose 5.0): 1.60 ± 0.10 mg
Mean thrombus weight (mg) (±SEM) (thrombus formation [7]; Dose 10): 0.66 ± 0.09 mg
Mean thrombus weight (mg) (±SEM) (thrombus formation [7]; Dose 15): 0.53 ± 0.18 mg
Mean thrombus weight (mg) (±SEM) (thrombus formation [7]; Dose 20): 0.62 ± 0.16 mg
